# Laboratory results from patent US11066445B2, “Immunomodulators acting as antagonists of PD-1” (Bristol-Myers Squibb Company, priority 2017, dated 2021).
# Starred links: 1 amine or outer side, 2 acyl side, 3 side chain; linkers in the order of their positions; H or OH if unused. Positions of bridges follow the written chain, without caps; N, C: chain ends. Non-standard residues stand in square brackets, D forms with d. Residues, ends and D or L forms follow the SMILES beside them. *: point of attachment. X1 = O=C(O)CCCCCCCCCCCCCCC(=O)N[C@@H](CCC(=O)NCCCOCCOCCOCCCN*)C(=O)O; X6 = COc1ccc2c(c1)c(C[C@H](N[*:1])C(=O)[*:2])cn2CC(=O)O; Hyp = O=C(O)[C@@H]1C[C@@H](O)CN1; NMeNle = CCCC[C@H](NC)C(=O)O; NMeA = CN[C@@H](C)C(=O)O; Dab = NCC[C@H](N)C(=O)O; Dap = NC[C@H](N)C(=O)O
# Biological target: T1, PD-1-Ig binding to PD-L1-TVMV-His (PD-L1-His) (Homo sapiens, UniProt Q9NZQ7)
# T1 construct: hPDL1(19-239)-TVMV-His; TVMV protease cleavage site (C); made in house; host or cells: HEK293T cells
# T1 sequence (Q9NZQ7 with tags, fused parts or gaps): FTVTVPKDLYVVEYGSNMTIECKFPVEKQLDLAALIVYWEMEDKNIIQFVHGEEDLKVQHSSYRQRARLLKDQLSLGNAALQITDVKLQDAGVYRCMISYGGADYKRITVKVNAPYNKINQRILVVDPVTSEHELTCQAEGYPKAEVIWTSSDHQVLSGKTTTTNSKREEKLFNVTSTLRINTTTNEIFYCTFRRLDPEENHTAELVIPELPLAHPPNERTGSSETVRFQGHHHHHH
# Assay: PD-1/PD-L1 Homogenous Time-Resolved Fluorescence (HTRF) binding assay
# Conditions: PD-1-Ig (20 nM) / PD-L1-His (10 nM); numeric values; read-out: LE HTRF hPD1 hPDL1 IC50
# Excerpt: Methods for Testing the Ability of Macrocyclic Peptides to Compete for the Binding of Pd-1 to Pd-L1 Using Homogenous Time-Resolved Fluorescence (HTRF) Binding Assays
# The ability of the macrocyclic peptides of the present disclosure to bind to PD-L1 was investigated using a PD-1/PD-L1 Homogenous Time-Resolved Fluorescence (HTRF) binding assay.
# Homogenous Time-Resolved Fluorescence (HTRF) Assays of Binding of Soluble PD-1 to Soluble PD-L1. Soluble PD-1 and soluble PD-L1 refers to proteins with carboxyl-end truncations that remove the transmembrane-spanning regions and are fused to heterologous sequences, specifically the Fc portion of the human immunoglobuling G sequence (Ig) or the hexahistidine epitope tag (His). All binding studies were performed in an HTRF assay buffer consisting of dPBS supplemented with 0.1% (w/v) bovine serum albumin and 0.05% (v/v) Tween-20. For the PD-1-Ig/PD-L1-His binding assay, inhibitors were pre-incubated with PD-L1-His (10 nM final) for 15 m in 4 μl of assay buffer, followed by addition of PD-1-Ig (20 nM final) in 1 μl of assay buffer and further incubation for 15 m. PD-L1 fusion proteins from either human, cynomologous macaques, mouse, or other species were used. HTRF detection was achieved using europium crypate-labeled anti-Ig monoclonal antibody (1 nM final) and allophycocyanin (APC) labeled anti-His monoclonal antibody (20 nM final). Antibodies were diluted in HTRF detection buffer and 5 μl was dispensed on top of binding reaction. The reaction was allowed to equilibrate for 30 minutes and signal (665 nm/620 nm ratio) was obtained using an EnVision fluorometer. Additional binding assays were established between PD-1-Ig/PD-L2-His (20 and 5 nM, respectively), CD80-His/PD-L1-Ig (100 and 10 nM, respectively) and CD80-His/CTLA4-Ig (10 and 5 nM, respectively). Binding/competition studies between biotinylated Compound No. 71 and human PD-L1-His were performed as follows. Macrocyclic peptide inhibitors were pre-incubated with PD-L1-His (10 nM final) for 60 minutes in 4 μl of assay buffer followed by addition of biotinylated Compound No. 71 (0.5 nM final) in 1 μl of assay buffer. Binding was allowed to equilibrate for 30 minutes followed by addition of europium crypated labeled Streptavidin (2.5 pM final) and APC-labeled anti-His (20 nM final) in 5 μl of HTRF buffer. The reaction was allowed to equilibrate for 30 m and signal (665 nm/620 nm ratio) was obtained using an EnVision fluorometer.
# Recombinant Proteins. Carboxyl-truncated human PD-1 (amino acids 25-167) with a C-terminal human Ig epitope tag [hPD-1 (25-167)-3S-IG] and human PD-L1 (amino acids 18-239) with a C-terminal His epitope tag [hPD-L1(19-239)-tobacco vein mottling virus protease cleavage site (TVMV)-His] were expressed in HEK293T cells and purified sequentially by recombinant Protein A affinity chromatography and size exclusion chromatography. Human PD-L2-His (Sino Biologicals), CD80-His (Sino Biologicals), CTLA4-Ig (RnD Systems) were all obtained through commercial sources.
# Ranges are as follows: A=0.010-0.060 μM; B=0.0011-0.009 μM; C=0.0003-0.0010 μM.
row,IC50 [nM],SMILES
1,0.6,CCCC[C@H]1C(=O)N(C)[C@@H](CCCC)C(=O)N[C@@H](CC(C)C)C(=O)N[C@H](C(=O)N[C@@H](Cc2cn(CCOCCOCCOCCOCCOCCOCCOCCOCCOCCOCCOCCNC(=O)CC[C@H](NC(=O)CCCCCCCCCCCCCCCCC(=O)O)C(=O)O)nn2)C(=O)O)CSCC(=O)N[C@@H](Cc2ccc(O)cc2)C(=O)N(C)[C@@H](C)C(=O)N[C@@H](CC(N)=O)C(=O)N2CCC[C@H]2C(=O)N[C@@H](CN)C(=O)N[C@@H](CC(C)C)C(=O)N2C[C@H](O)C[C@H]2C(=O)N[C@@H](Cc2c[nH]c3ccccc23)C(=O)N[C@@H](CCN)C(=O)N[C@@H](Cc2nn(CC(=O)O)c3ccccc23)C(=O)N1C [Example 22]

# Same assay, conditions: PD-1-Ig (20 nM) / PD-L1-His (10 nM); range classes; read-out: LE HTRF hPD1 hPDL1 IC50
row,SMILES,IC50 [nM]
1,CCCC[C@H]1C(=O)N(C)[C@@H](CCCC)C(=O)N[C@@H](CC(C)C)C(=O)N[C@H](C(=O)NCC(=O)N[C@@H](CC(=O)NCCCOCCOCCOCCCNC(=O)CC[C@H](NC(=O)CCCCCCCCCCCCCCC(=O)O)C(=O)O)C(=O)O)CSCC(=O)N[C@@H](Cc2ccc(O)cc2)C(=O)N(C)[C@@H](C)C(=O)N[C@@H](CC(N)=O)C(=O)N2CCC[C@H]2C(=O)N[C@@H](CN)C(=O)N[C@@H](CC(C)C)C(=O)N2C[C@H](O)C[C@H]2C(=O)N[C@@H](Cc2c[nH]c3ccccc23)C(=O)N[C@@H](CCN)C(=O)N[C@@H](Cc2cn(CC(=O)O)c3ccc(OC)cc23)C(=O)N1C [Example 21] ({CH2CO}-Y[NMeA]NP[Dap]L[Hyp]W[Dab][X6][NMeNle][NMeNle]LCGD(X1)-OH; thioether N-14),1.1 to 9
2,CCCC[C@H]1C(=O)N(C)[C@@H](CCCC)C(=O)N[C@@H](CC(C)C)C(=O)N[C@H](C(=O)NCC(=O)N[C@@H](Cc2cn(CCOCCOCCOCCOCCOCCOCCOCCOCCOCCOCCOCCNC(=O)CC[C@H](NC(=O)CCCCCCCCCCCCCCCCC(=O)O)C(=O)O)nn2)C(=O)O)CSCC(=O)N[C@@H](Cc2ccc(O)cc2)C(=O)N(C)[C@@H](C)C(=O)N[C@@H](CC(N)=O)C(=O)N2CCC[C@H]2C(=O)N[C@@H](CN)C(=O)N[C@@H](CC(C)C)C(=O)N2C[C@H](O)C[C@H]2C(=O)N[C@@H](Cc2c[nH]c3ccccc23)C(=O)N[C@@H](CCN)C(=O)N[C@@H](Cc2nn(CC(=O)OC)c3ccccc23)C(=O)N1C [Example 23],0.3 to 1
3,CCCC[C@H]1C(=O)N(C)[C@@H](CCCC)C(=O)N[C@@H](CC(C)C)C(=O)N[C@H](C(=O)N[C@@H](Cc2cn(CCOCCOCCOCCOCCOCCOCCOCCOCCOCCOCCOCCNC(=O)CC[C@H](NC(=O)CCCCCCCCCCCCCCCCC(=O)O)C(=O)O)nn2)C(=O)O)CSCC(=O)N[C@@H](Cc2ccc(O)cc2)C(=O)N(C)[C@@H](C)C(=O)N[C@@H](CC(N)=O)C(=O)N2CCC[C@H]2C(=O)N[C@@H](CN)C(=O)N[C@@H](CC(C)C)C(=O)N2C[C@H](O)C[C@H]2C(=O)N[C@@H](Cc2c[nH]c3ccccc23)C(=O)N[C@@H](CCN)C(=O)N[C@@H](Cc2nn(CC(=O)O)c3ccc(OC)cc23)C(=O)N1C [Example 24],0.3 to 1
4,CCCC[C@H]1C(=O)N(C)[C@@H](CCCC)C(=O)N[C@@H](CC(C)C)C(=O)N[C@H](C(=O)NCC(=O)N[C@@H](Cc2cn(CCOCCOCCOCCOCCOCCOCCOCCOCCOCCOCCOCCNC(=O)CCC(NC(=O)CCCCCCCCCCCCCCCCC(=O)O)C(=O)O)nn2)C(=O)O)CSCC(=O)N[C@@H](Cc2ccc(O)cc2)C(=O)N(C)[C@@H](C)C(=O)N[C@@H](CC(N)=O)C(=O)N2CCC[C@H]2C(=O)N[C@@H](CN)C(=O)N[C@@H](CC(C)C)C(=O)N2C[C@H](O)C[C@H]2C(=O)N[C@@H](Cc2c[nH]c3ccccc23)C(=O)N[C@@H](CCN)C(=O)N[C@@H](Cc2cn(CC(=O)O)c3ccc(OC)cc23)C(=O)N1C (some centres unmarked) [Example 27],0.3 to 1
5,CCCC[C@H]1C(=O)N(C)[C@@H](CCCC)C(=O)N[C@@H](CC(C)C)C(=O)N[C@H](C(=O)NCC(=O)N[C@@H](Cc2cn(CCOCCOCCOCCOCCOCCOCCOCCOCCOCCOCCOCCNC(=O)CC[C@H](NC(=O)CCCCCCCCCCCCCCCCC(=O)O)C(=O)O)nn2)C(=O)O)CSCC(=O)N[C@@H](Cc2ccc(O)cc2)C(=O)N(C)[C@@H](C)C(=O)N[C@@H](CC(N)=O)C(=O)N2CCC[C@H]2C(=O)N[C@@H](CN)C(=O)N[C@@H](CC(C)C)C(=O)N2C[C@H](O)C[C@H]2C(=O)N[C@@H](Cc2c[nH]c3ccccc23)C(=O)N[C@@H](CCN)C(=O)N[C@@H](Cc2nn(CC(=O)O)c3ccccc23)C(=O)N1C [Example 29],0.3 to 1
6,CCCC[C@H]1C(=O)N(C)[C@@H](CCCC)C(=O)N[C@@H](CC(C)C)C(=O)N[C@H](C(=O)NCC(=O)N[C@@H](Cc2cn(CCOCCOCCOCCOCCOCCOCCOCCOCCOCCOCCOCCNC(=O)CC[C@H](NC(=O)CCCCCCCCCCCCCCCCC(=O)O)C(=O)O)nn2)C(=O)O)CSCC(=O)N[C@@H](Cc2ccc(O)cc2)C(=O)N(C)[C@@H](C)C(=O)N[C@@H](CC(N)=O)C(=O)N2CCC[C@H]2C(=O)N[C@@H](CN)C(=O)N[C@@H](CC(C)C)C(=O)N2C[C@H](O)C[C@H]2C(=O)N[C@@H](Cc2c[nH]c3ccccc23)C(=O)N[C@@H](CCN)C(=O)N[C@@H](Cc2cn(CC(=O)NS(C)(=O)=O)c3ccccc23)C(=O)N1C [Example 30],1.1 to 9
7,CCCC[C@H]1C(=O)N(C)[C@@H](CCCC)C(=O)N[C@@H](CC(C)C)C(=O)N[C@H](C(=O)NCC(=O)N[C@@H](Cc2cn(CCOCCOCCOCCOCCOCCOCCOCCOCCOCCOCCOCCNC(=O)CC[C@H](NC(=O)CCCCCCCCCCCCCCCCC(=O)O)C(=O)O)nn2)C(=O)O)CSCC(=O)N[C@@H](Cc2ccc(O)cc2)C(=O)N(C)[C@@H](C)C(=O)N[C@@H](CC(N)=O)C(=O)N2CCC[C@H]2C(=O)N[C@@H](CN)C(=O)N[C@@H](CC(C)C)C(=O)N2C[C@H](O)C[C@H]2C(=O)N[C@@H](Cc2c[nH]c3ccccc23)C(=O)N[C@@H](CCN)C(=O)N[C@@H](Cc2cn(CC(=O)O)c3ncccc23)C(=O)N1C [Example 31],0.3 to 1

# The remaining lines, values ahead:
row,IC50 [nM],SMILES
1,10 to 60,CCCC[C@H]1C(=O)N(C)[C@@H](CCCC)C(=O)N[C@@H](CC(C)C)C(=O)N[C@H](C(=O)N[C@@H](Cc2cn(CCOCCOCCOCCOCCOCCOCCOCCOCCOCCOCCOCCNC(=O)CC[C@H](NC(=O)CCCCCCCCCCCCCCCCC(=O)O)C(=O)O)nn2)C(=O)O)CSCC(=O)N[C@@H](Cc2ccc(O)cc2)C(=O)N(C)[C@@H](C)C(=O)N[C@@H](CC(N)=O)C(=O)N2CCC[C@H]2C(=O)N[C@@H](CN)C(=O)N[C@@H](CC(C)C)C(=O)N2C[C@H](O)C[C@H]2C(=O)N[C@@H](Cc2c[nH]c3ccccc23)C(=O)N[C@@H](CCN)C(=O)NC(Cc2cn(CC(=O)O)c3ncccc23)C(=O)N1C (some centres unmarked) [Example 25]
2,1.1 to 9,CCCC[C@H]1C(=O)N(C)[C@@H](CCCC)C(=O)N[C@@H](CC(C)C)C(=O)N[C@H](C(=O)N[C@@H](Cc2cn(CCOCCOCCOCCOCCOCCOCCOCCOCCOCCOCCOCCNC(=O)CC[C@H](NC(=O)CCCCCCCCCCCCCCCCC(=O)O)C(=O)O)nn2)C(=O)O)CSCC(=O)N[C@@H](Cc2ccc(O)cc2)C(=O)N(C)[C@@H](C)C(=O)N[C@@H](CC(N)=O)C(=O)N2CCC[C@H]2C(=O)N[C@@H](CN)C(=O)N[C@@H](CC(C)C)C(=O)N2C[C@H](O)C[C@H]2C(=O)N[C@@H](Cc2c[nH]c3ccccc23)C(=O)N[C@@H](CCN)C(=O)N[C@@H](Cc2cn(CC(=O)O)c3cccnc23)C(=O)N1C [Example 26]
3,10 to 60,CCCC[C@H]1C(=O)N(C)[C@@H](CCCC)C(=O)N[C@@H](CC(C)C)C(=O)N[C@H](C(=O)NCC(=O)N[C@@H](Cc2cn(CCOCCOCCOCCOCCOCCOCCOCCOCCOCCOCCOCCNC(=O)CCC(NC(=O)CCCCCCCCCCCCCCCCC(=O)O)C(=O)O)nn2)C(=O)O)CSCC(=O)N[C@@H](Cc2ccc(O)cc2)C(=O)N(C)[C@@H](C)C(=O)N[C@@H](CC(N)=O)C(=O)N2CCC[C@H]2C(=O)N[C@@H](CN)C(=O)N[C@@H](CC(C)C)C(=O)N2C[C@H](O)C[C@H]2C(=O)N[C@@H](Cc2c[nH]c3ccccc23)C(=O)N[C@@H](CCN)C(=O)N[C@@H](Cc2cn(CC(=O)O)c3cccnc23)C(=O)N1C (some centres unmarked) [Example 28]
